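Briefly, cells in 96-well plates were exposed to five compound concentrations for 48 h, and endpoints were estimated by linear interpolation. Abbreviation: GI50, concentration required for 50% inhibition of growth.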 Active and inactive are the calls of the source. Cut-off read from the data, not from the text of the source: active = GI50 up to about 1.1 µM and inactive = higher. Where a SMILES comes first, the peptide text is derived from it. [ ]: non-standard residue; d: D form. The star is where a group is joined. Cbz = O=C(OCc1ccccc1)*; Aib = CC(C)(N)C(=O)O
Experiments:
Assay in all cases: inhibition of tumour cell growth, NCI panel, 48 h
[1] = system: SR
[2] = system: HT-29
[3] = system: SF-268
[4] = system: RPMI-8226
[5] = system: SF-295
[6] = system: SW-620
[7] = system: SK-OV-3
[8] = system: RXF 393
[9] = system: KM12
[10] = system: HL-60
[11] = system: EKVX
[12] = system: HCT-15
[13] = system: NCI-H460
[14] = system: Malme-3M
[15] = system: TK-10
[16] = system: ACHN
[17] = system: NCI/ADR-RES
[18] = system: NCI-H522
[19] = system: MDA-MB-231

SMILES | GI50 [1] | GI50 [2] | GI50 [3] | GI50 [4] | GI50 [5] | GI50 [6] | GI50 [7] | GI50 [8] | GI50 [9] | GI50 [10] | GI50 [11] | GI50 [12] | GI50 [13] | GI50 [14] | GI50 [15] | GI50 [16] | GI50 [17] | GI50 [18] | GI50 [19]
COc1cccc(C2c3cc4c(cc3OC(O)(CO)C2C(=O)O)OCO4)c1.COc1cccc(C2c3cc4c(cc3OC3(O)COC(=O)C23)OCO4)c1 (stereo not given) | 38.8 µM (inactive) | 37.7 µM (inactive) | 40.4 µM (inactive) | 53 µM (inactive) | 39.9 µM (inactive) | 82.2 µM (inactive) | 91.8 µM (inactive) | 33.5 µM (inactive) | 35.7 µM (inactive) | 33.7 µM (inactive) | 42.8 µM (inactive) | 43.9 µM | 21.2 µM (inactive) | > 100 µM (inactive) | > 100 µM (inactive) | 49.5 µM (inactive) |  |  | 
CC(C)(NC(=O)C(C)(C)NC(=O)OCc1ccccc1)C(=O)O (Cbz-[Aib]-[Aib]-OH) | > 100 µM (inactive) | > 100 µM (inactive) | > 100 µM (inactive) | > 100 µM (inactive) | > 100 µM (inactive) | > 100 µM (inactive) | > 100 µM (inactive) |  | > 100 µM (inactive) |  | > 100 µM (inactive) | > 100 µM | > 100 µM (inactive) | > 100 µM (inactive) | > 100 µM (inactive) | > 100 µM (inactive) | > 100 µM (inactive) | > 100 µM (inactive) | > 100 µM (inactive)
CC(=O)OCC1OC(OC2CC3C(C)(C)C(OC(C)=O)CC[C@]3(C)C3CCC45CC4(CC[C@H]5C(C)CC(O)C4OC4(C)C)[C@]23C)C(O)C(O)C1O (stereo not given in full) | 2.65 µM (inactive) | 0.92 µM (active) | 2.44 µM (inactive) | 1.95 µM (inactive) | 1.69 µM (inactive) | 2.43 µM (inactive) | 2.3 µM (inactive) | 1.55 µM (inactive) | 1.35 µM (inactive) | 1.18 µM (inactive) | 3.11 µM (inactive) | 1.55 µM | 1.79 µM (inactive) | 7.98 µM (inactive) | 3.35 µM (inactive) | 2.21 µM (inactive) |  | 1.59 µM (inactive) | 
CCC(C)C(Nc1c2ccccc2nc2c(C(=O)NCCN(C)C)cccc12)C(=O)O (stereo not given) | 46.6 µM (inactive) | 3.21 µM (inactive) | 13.6 µM (inactive) | 28.8 µM (inactive) | 12.3 µM (inactive) | 9.16 µM (inactive) | 22 µM (inactive) |  | 14.8 µM (inactive) |  | 16.2 µM (inactive) | 7.45 µM |  | 12.3 µM (inactive) | 38.5 µM (inactive) | 7.94 µM (inactive) | 10.4 µM (inactive) | 12.7 µM (inactive) | 17.6 µM (inactive)
C=CCn1c(=S)sc2c(C(=O)OCC)c3c(C)cc(C)cn3c2c1=O | > 100 µM (inactive) | > 100 µM (inactive) | 67.5 µM (inactive) | > 100 µM (inactive) | 86.7 µM (inactive) | > 100 µM (inactive) | 90.8 µM (inactive) | > 100 µM (inactive) |  | > 100 µM (inactive) | > 100 µM (inactive) | > 100 µM | > 100 µM (inactive) | > 100 µM (inactive) | > 100 µM (inactive) | > 100 µM (inactive) |  | 65.6 µM (inactive) | 
COC(=O)C(c1ccc(OC)cc1)N1C(=O)[C@@H](NC(=O)c2ccccc2)[C@H]1[C@@H](C)O (stereo not given in full) | > 100 µM (inactive) | > 100 µM (inactive) | > 100 µM (inactive) |  | > 100 µM (inactive) | > 100 µM (inactive) | > 100 µM (inactive) | > 100 µM (inactive) | > 100 µM (inactive) | > 100 µM (inactive) | > 100 µM (inactive) | > 100 µM | > 100 µM (inactive) | > 100 µM (inactive) | > 100 µM (inactive) | > 100 µM (inactive) |  | > 100 µM (inactive) | 
O=C1C(Br)=CC2(C=C1Br)CCNC1=C2C(=O)c2ccccc2C1=O | 2.95 µM (inactive) | 18.7 µM (inactive) | 11.2 µM (inactive) | 4.75 µM (inactive) | 16.8 µM (inactive) | 9.98 µM (inactive) | 30.4 µM (inactive) | 3.84 µM (inactive) | 8.22 µM (inactive) | 3.34 µM (inactive) | 38.5 µM (inactive) | 7.76 µM |  | 18.1 µM (inactive) | 33.3 µM (inactive) | 14.1 µM (inactive) |  | 3.58 µM (inactive) | 
O=C(/C=C/c1cccc(Br)c1)c1cccs1 | 10.1 µM (inactive) | 11.5 µM (inactive) | 19.6 µM (inactive) | 2.09 µM (inactive) | 16.6 µM (inactive) | 9.35 µM (inactive) | 23.8 µM (inactive) |  | 13.7 µM (inactive) | 3.83 µM (inactive) | 18.5 µM (inactive) | 14.6 µM | 16.2 µM (inactive) | 22.1 µM (inactive) | 16.4 µM (inactive) | 20.1 µM (inactive) | 23.6 µM (inactive) |  | 16.7 µM (inactive)
CCCCCCCCCCCCCCCCP(=O)(OC)OC | 19.1 µM (inactive) | 17.5 µM (inactive) |  | 13.2 µM (inactive) | 18 µM (inactive) | 14.7 µM (inactive) | 15.2 µM (inactive) | 19 µM (inactive) | 17.9 µM (inactive) | 11.6 µM (inactive) | 15 µM (inactive) | 16.6 µM | 17.3 µM (inactive) | 18.2 µM (inactive) | 17.1 µM (inactive) | 14.8 µM (inactive) |  | 13.5 µM (inactive) | 
CCOC(=O)C(=O)Nc1c(F)cc(F)cc1Br | > 100 µM (inactive) | > 100 µM (inactive) | > 100 µM (inactive) | > 100 µM (inactive) | > 100 µM (inactive) | > 100 µM (inactive) | > 100 µM (inactive) | > 100 µM (inactive) | > 100 µM (inactive) | > 100 µM (inactive) | > 100 µM (inactive) | > 100 µM | > 100 µM (inactive) | > 100 µM (inactive) | > 100 µM (inactive) | > 100 µM (inactive) |  |  | 
O=C1/C(=C/c2ccccc2)CN(C(=O)Oc2ccc([N+](=O)[O-])cc2)C/C1=C\c1ccccc1 | 2.1 µM (inactive) | 1.42 µM (inactive) | 5.09 µM (inactive) | 0.0551 µM (active) | 1.33 µM (inactive) | 0.59 µM (active) | > 10 µM (inactive) | 6.84 µM (inactive) | 0.661 µM (active) | 1.04 µM (active) | > 10 µM (inactive) | 2.08 µM | 6.03 µM (inactive) | > 10 µM (inactive) | > 10 µM (inactive) | 6.65 µM (inactive) |  | 3.18 µM (inactive) | 
Cc1nc(NC(=S)NC(=O)c2ccc(Cl)c(Cl)c2)sc1C(=O)/C=C/c1ccccc1[N+](=O)[O-] | 24.5 µM (inactive) | 21.3 µM (inactive) | 39.4 µM (inactive) | 24.2 µM (inactive) | 24.2 µM (inactive) | 20.2 µM (inactive) | 15.6 µM (inactive) | 19.4 µM (inactive) | 18.7 µM (inactive) | 19.1 µM (inactive) | 32.7 µM (inactive) | 20.4 µM | 28.9 µM (inactive) | 18.5 µM (inactive) | 36.1 µM (inactive) | 24.4 µM (inactive) |  | 16.9 µM (inactive) | 
CN(C)/C=N/Cc1ccc2c(c1)OCO2 | > 100 µM (inactive) | > 100 µM (inactive) | > 100 µM (inactive) | > 100 µM (inactive) | > 100 µM (inactive) | > 100 µM (inactive) | > 100 µM (inactive) | > 100 µM (inactive) | > 100 µM (inactive) |  | > 100 µM (inactive) | > 100 µM | > 100 µM (inactive) | > 100 µM (inactive) | > 100 µM (inactive) | > 100 µM (inactive) | > 100 µM (inactive) | > 100 µM (inactive) | > 100 µM (inactive)
CC1(C)CC[C@]2(C(=O)O)CCC3(C)C(=CCC4[C@@]5(C)CC[C@H](OC6OCC(O)C(O)C6OC6OC(CO)C(O)C(O)C6O)C(C)(C)C5CC[C@]43C)C2C1 (stereo not given in full) | 2.29 µM (inactive) | 2.46 µM (inactive) | 2.4 µM (inactive) | 2.35 µM (inactive) | 1.79 µM (inactive) | 2.15 µM (inactive) | 2.22 µM (inactive) | 1.96 µM (inactive) | 2.24 µM (inactive) |  | 1.79 µM (inactive) | 2.17 µM | 2.1 µM (inactive) | 1.87 µM (inactive) | 2.04 µM (inactive) | 1.94 µM (inactive) |  |  | 
CCCCCCn1c(SCC)c2ccccc2c1-c1nc(F)nc(F)n1 | 88.7 µM (inactive) | > 100 µM (inactive) | > 100 µM (inactive) | > 100 µM (inactive) | > 100 µM (inactive) | > 100 µM (inactive) | > 100 µM (inactive) | > 100 µM (inactive) | > 100 µM (inactive) | > 100 µM (inactive) | > 100 µM (inactive) | > 100 µM | > 100 µM (inactive) | > 100 µM (inactive) | > 100 µM (inactive) | > 100 µM (inactive) |  | > 100 µM (inactive) | 
O=c1[nH]c(=O)n(Cc2ccccc2CO)cc1Sc1ccccc1 | 25.4 µM (inactive) | 30.5 µM (inactive) | 22.8 µM (inactive) |  | 30 µM (inactive) | 36.9 µM (inactive) | 42.4 µM (inactive) | 24.7 µM (inactive) | 23.7 µM (inactive) | 74.8 µM (inactive) | 21 µM (inactive) | 18.8 µM | 49.7 µM (inactive) | 21.4 µM (inactive) | 30.7 µM (inactive) | 26.5 µM (inactive) | 26.8 µM (inactive) | 1.87 µM (inactive) | 11.8 µM (inactive)
